From PubChem BioAssay (NCI)
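Assay format: 96-well plates, 48-hour exposure. GI50: concentration for 50% inhibition of growth. TGI is the concentration that stops growth completely.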

Assays:
Experiment in all cases: DTP human tumour cell line panel, 48 h
[1] = test system: SW-620 colon
[2] = test system: COLO 205 colon
[3] = test system: M14 melanoma
[4] = test system: MOLT-4 leukemia
[5] = test system: U251 CNS
[6] = test system: LOX IMVI melanoma
[7] = test system: MDA-MB-231 breast
[8] = test system: HT29 colon
[9] = test system: T-47D breast
[10] = test system: UACC-62 melanoma
[11] = test system: DU-145 prostate
[12] = test system: OVCAR-5 ovarian
[13] = test system: SF-268 CNS
[14] = test system: UO-31 renal
[15] = test system: UACC-257 melanoma
[16] = test system: SF-295 CNS
[17] = test system: OVCAR-3 ovarian
[18] = test system: MDA-MB-435
[19] = test system: SR leukemia
[20] = test system: SN12C renal
[21] = test system: SK-OV-3 ovarian
[22] = test system: HOP-62 NSCLC
[23] = test system: NCI-H460 lung
[24] = test system: EKVX NSCLC
[25] = test system: CCRF-CEM leukemia
[26] = test system: KM12 colon
[27] = test system: HCT-116 colon
[28] = test system: CAKI-1 renal
[29] = test system: 786-0 renal
[30] = test system: SK-MEL-28 melanoma
[31] = test system: OVCAR-8 ovarian
[32] = test system: SK-MEL-2 melanoma
[33] = test system: RXF 393 renal
[34] = test system: ACHN renal
[35] = test system: BT-549 breast
[36] = test system: SNB-75 CNS
[37] = test system: TK-10 renal
[38] = test system: SNB-19 CNS
[39] = test system: NCI-H226 lung
[40] = test system: SK-MEL-5 melanoma
[41] = test system: NCI/ADR-RES ovarian
[42] = test system: NCI-H23 lung
[43] = test system: A549 NSCLC
[44] = test system: MCF7 breast
[45] = test system: K-562 leukemia
[46] = test system: IGROV1 ovarian
[47] = test system: HCT-15 colon
[48] = test system: OVCAR-4 ovarian
[49] = test system: HS 578T breast
[50] = test system: HOP-92 NSCLC
[51] = test system: PC-3 prostate
[52] = test system: HL-60(TB) leukemia
[53] = test system: SF-539 CNS
[54] = test system: NCI-H522 lung
[55] = test system: RPMI-8226 leukemia

For CC[C@]1(Cc2ccc(OC)c(OC)c2)[C@@H]2C[C@@H](C(=O)OC)ON2O[C@H](OC2CCCC2(c2ccccc2)c2ccccc2)[C@@H]1OC(C)=O (some centres undefined), which TGI [1] is on record?
Its TGI is over 100 µM.

And the TGI [2]?
The TGI was over 100 µM.

What about the TGI [3] of the same compound?
Its TGI is over 100 µM.

What about the TGI [4] of the same compound?
Its TGI is over 100 µM.

What about the TGI [5] of the same compound?
The TGI was over 100 µM.

And the TGI [6]?
Its TGI is over 100 µM.

What about the TGI [7] of the same compound?
The TGI was over 100 µM.

And the TGI [8]?
Its TGI is over 100 µM.

And the TGI [9]?
Its TGI is over 100 µM.

And the TGI [10]?
The TGI was over 100 µM.

And the TGI [11]?
The TGI was over 100 µM.

And the TGI [12]?
Its TGI is over 100 µM.

What about the TGI [13] of the same compound?
The TGI was over 100 µM.

What about the TGI [14] of the same compound?
Its TGI is over 100 µM.

And the TGI [15]?
Its TGI is over 100 µM.

And the TGI [16]?
Its TGI is over 100 µM.

What about the TGI [17] of the same compound?
Its TGI is over 100 µM.

And the TGI [18]?
The TGI was over 100 µM.

What about the TGI [19] of the same compound?
Its TGI is over 100 µM.

What about the TGI [20] of the same compound?
The TGI was over 100 µM.

And the TGI [21]?
The TGI was over 100 µM.

What about the TGI [22] of the same compound?
The TGI was over 100 µM.

What about the TGI [23] of the same compound?
The TGI was over 100 µM.

What about the TGI [24] of the same compound?
Its TGI is over 100 µM.

What about the TGI [25] of the same compound?
Its TGI is over 100 µM.

What about the TGI [26] of the same compound?
The TGI was over 100 µM.

What about the TGI [27] of the same compound?
The TGI was over 100 µM.

And the TGI [28]?
The TGI was over 100 µM.

What about the TGI [29] of the same compound?
Its TGI is over 100 µM.

And the TGI [30]?
Its TGI is over 100 µM.

What about the TGI [31] of the same compound?
Its TGI is over 100 µM.

What about the TGI [32] of the same compound?
Its TGI is over 100 µM.

What about the TGI [33] of the same compound?
The TGI was over 100 µM.

What about the TGI [34] of the same compound?
Its TGI is over 100 µM.

What about the TGI [35] of the same compound?
The TGI was over 100 µM.

What about the TGI [36] of the same compound?
Its TGI is over 100 µM.

What about the TGI [37] of the same compound?
The TGI was over 100 µM.

What about the TGI [38] of the same compound?
Its TGI is over 100 µM.

What about the TGI [39] of the same compound?
The TGI was over 100 µM.

What about the TGI [40] of the same compound?
The TGI was over 100 µM.

And the TGI [41]?
Its TGI is over 100 µM.

And the TGI [42]?
Its TGI is over 100 µM.

And the TGI [43]?
Its TGI is over 100 µM.

What about the TGI [44] of the same compound?
Its TGI is over 100 µM.

What about the TGI [45] of the same compound?
The TGI was over 100 µM.

And the TGI [46]?
The TGI was over 100 µM.

And the TGI [47]?
Its TGI is over 100 µM.

Which GI50 [1] does the source give for COc1ccc(-c2c(C#N)c(N)nc3c2COc2ccc(F)cc2-3)cc1OC here?
The GI50 was 9.21 µM.

And the TGI [1]?
Its TGI is over 100 µM.

What about the GI50 [2] of the same compound?
Its GI50 is 5.79 µM.

What about the TGI [2] of the same compound?
The TGI was over 100 µM.

What about the GI50 [3] of the same compound?
The GI50 was 22 µM.

What about the TGI [3] of the same compound?
The TGI was 98.9 µM.

And the GI50 [4]?
The GI50 was over 100 µM.

What about the TGI [4] of the same compound?
The TGI was over 100 µM.

And the GI50 [5]?
The GI50 was 10.3 µM.

And the TGI [5]?
Its TGI is 22.7 µM.

What about the GI50 [48] of the same compound?
Its GI50 is 6.82 µM.

And the TGI [48]?
The TGI was 63.7 µM.

And the GI50 [6]?
Its GI50 is 2.29 µM.

And the TGI [6]?
The TGI was 9.84 µM.

What about the GI50 [7] of the same compound?
The GI50 was 2.53 µM.

And the TGI [7]?
The TGI was 9.63 µM.

And the GI50 [10]?
The GI50 was 7.99 µM.

What about the TGI [10] of the same compound?
Its TGI is 23 µM.

And the GI50 [11]?
Its GI50 is 8.14 µM.

And the TGI [11]?
Its TGI is 23.9 µM.

What about the GI50 [12] of the same compound?
Its GI50 is 17.2 µM.

What about the TGI [12] of the same compound?
The TGI was 33.6 µM.

What about the GI50 [49] of the same compound?
Its GI50 is 7.55 µM.

What about the TGI [49] of the same compound?
Its TGI is 38.5 µM.

And the GI50 [50]?
The GI50 was 18 µM.

What about the TGI [50] of the same compound?
The TGI was over 100 µM.

What about the GI50 [13] of the same compound?
Its GI50 is 15.8 µM.

And the TGI [13]?
Its TGI is 56.4 µM.

What about the GI50 [14] of the same compound?
Its GI50 is 17.3 µM.

And the TGI [14]?
The TGI was 57.9 µM.

And the GI50 [15]?
The GI50 was 18.9 µM.

What about the TGI [15] of the same compound?
Its TGI is 60.5 µM.

What about the GI50 [16] of the same compound?
The GI50 was 3.27 µM.

And the TGI [16]?
The TGI was 10.9 µM.

And the GI50 [51]?
The GI50 was 17.1 µM.

What about the TGI [51] of the same compound?
Its TGI is over 100 µM.

And the GI50 [17]?
The GI50 was 2.21 µM.

What about the TGI [17] of the same compound?
Its TGI is 6.41 µM.

And the GI50 [18]?
Its GI50 is 10.7 µM.

What about the TGI [18] of the same compound?
The TGI was 37.4 µM.

What about the GI50 [19] of the same compound?
The GI50 was 2.15 µM.

What about the TGI [19] of the same compound?
Its TGI is over 100 µM.

And the GI50 [20]?
Its GI50 is 6.22 µM.

And the TGI [20]?
Its TGI is 20.9 µM.

And the GI50 [21]?
Its GI50 is 8.44 µM.

And the TGI [21]?
Its TGI is 36.8 µM.

And the GI50 [22]?
The GI50 was 14.7 µM.

What about the TGI [22] of the same compound?
Its TGI is 39 µM.

And the GI50 [23]?
The GI50 was 9.03 µM.

What about the TGI [23] of the same compound?
Its TGI is over 100 µM.

What about the GI50 [24] of the same compound?
The GI50 was 4.91 µM.

What about the TGI [24] of the same compound?
Its TGI is 24.8 µM.

And the GI50 [26]?
The GI50 was 5.83 µM.

And the TGI [26]?
Its TGI is over 100 µM.

And the GI50 [27]?
Its GI50 is 6.66 µM.

And the TGI [27]?
Its TGI is 37.3 µM.

And the GI50 [28]?
Its GI50 is 2.18 µM.

And the TGI [28]?
Its TGI is 8.15 µM.

What about the GI50 [29] of the same compound?
The GI50 was 16.9 µM.

What about the TGI [29] of the same compound?
Its TGI is 46.2 µM.

What about the GI50 [30] of the same compound?
The GI50 was 29.9 µM.

And the TGI [30]?
Its TGI is over 100 µM.

And the GI50 [31]?
Its GI50 is 3.62 µM.

And the TGI [31]?
The TGI was 13.2 µM.

What about the GI50 [32] of the same compound?
Its GI50 is 34.5 µM.

What about the TGI [32] of the same compound?
Its TGI is over 100 µM.

What about the GI50 [33] of the same compound?
Its GI50 is 20.3 µM.

And the TGI [33]?
The TGI was 51.6 µM.

And the GI50 [34]?
The GI50 was 1.4 µM.

What about the TGI [34] of the same compound?
Its TGI is 5.44 µM.

And the GI50 [35]?
Its GI50 is 10.1 µM.

And the TGI [35]?
The TGI was 26.5 µM.

And the GI50 [37]?
The GI50 was 3.35 µM.

And the TGI [37]?
The TGI was 24 µM.

What about the GI50 [38] of the same compound?
Its GI50 is 4.37 µM.

What about the TGI [38] of the same compound?
The TGI was 23.7 µM.

And the GI50 [39]?
Its GI50 is 4.54 µM.

What about the TGI [39] of the same compound?
The TGI was 20 µM.

And the GI50 [40]?
Its GI50 is 12 µM.

What about the TGI [40] of the same compound?
The TGI was 37.5 µM.

What about the GI50 [41] of the same compound?
The GI50 was 17.4 µM.

What about the TGI [41] of the same compound?
The TGI was 42.2 µM.

What about the GI50 [52] of the same compound?
The GI50 was 23.2 µM.

What about the TGI [52] of the same compound?
Its TGI is 92.4 µM.

What about the GI50 [42] of the same compound?
Its GI50 is 14.1 µM.

And the TGI [42]?
Its TGI is 30.5 µM.

What about the GI50 [43] of the same compound?
The GI50 was 3.81 µM.

What about the TGI [43] of the same compound?
Its TGI is 14.2 µM.

And the GI50 [44]?
Its GI50 is 17.6 µM.

What about the TGI [44] of the same compound?
Its TGI is over 100 µM.

What about the GI50 [53] of the same compound?
The GI50 was 3.38 µM.

And the TGI [53]?
The TGI was 11 µM.

What about the GI50 [54] of the same compound?
The GI50 was 18.9 µM.

And the TGI [54]?
The TGI was over 100 µM.

And the GI50 [45]?
The GI50 was 53.6 µM.

And the TGI [45]?
The TGI was over 100 µM.

And the GI50 [55]?
The GI50 was 6.61 µM.

What about the TGI [55] of the same compound?
The TGI was over 100 µM.

What about the GI50 [46] of the same compound?
The GI50 was 8.88 µM.

What about the TGI [46] of the same compound?
Its TGI is 65.1 µM.

What about the GI50 [47] of the same compound?
The GI50 was 8.29 µM.

What about the TGI [47] of the same compound?
The TGI was 52.9 µM.
